“Also recorded” adds a separate entry of the source.
Experiments:
[1] = test system: naïve mice or mice following spared nerve injury (SNI); experiment: Repeated i.t. STING agonist administration, nerve injury (SNI) model; assay type: in vivo, mouse
Experimental: Mouse pain models: The chemotherapy-induced peripheral neuropathy (CIPN) model of chronic neuropathic pain was established as we have done previously, using 8-10-week-old CD-1 (strain #022, Charles River) mice injected with paclitaxel (2 mg/kg i.p.) every other day, with 4 injections total. The chronic constriction injury (CCI) model of neuropathic pain was also produced using 8-10-week-old CD-1 under isoflurane anesthesia. Briefly, the right sciatic nerve was exposed above the hip and two ligatures (7-0 Prolene) were placed around the nerve 1 mm apart located proximal to the trifurcation. Ligatures were loosely tied until a subtle flick of the ipsilateral hind limb was observed. CD-1 mice were also used to establish the SNI model, which was generated by tightly ligating the tibial and common peroneal nerves followed by transection and removal of a ˜3 mm portion of the nerve. The sural nerve was left intact and contact or stretching of this nerve was avoided . To establish the syngeneic bone cancer pain (BCP) model, 8-10-week-old C57BL/6J mice (strain #000664, Jackson Labs) were utilized, as the Lewis lung carcinoma cell line LLC1 (LL/2; ATCC CRL-1642) was originally generated in C57BL/6J mice. Mice were anesthetized with isoflurane and the left leg was shaved, disinfected with 10% povidone-iodine, and a 1 cm superficial incision was made to expose the patellar ligament. A 25-gauge needle was inserted at the intercondylar notch of the left femur into the femoral cavity, followed by needle replacement with a 10 μl Hamilton syringe microinjector containing a 2 μl suspension of LLC cells (2×10^5 cells) followed by a 2 μl gelatin sponge solution to enable closure of the injection site. All mice were housed and monitored in accordance with AAALAC standards and Duke IACUC guidelines that pertained to each model.
Reflexive-based sensory testing in mice: All behavioral testing in mice was performed in a specialized humidity- and light-controlled mouse behavior facility maintained at 21-24° C., with testing conducted between the hours of 8:00-16:00. Mice were habituated to the testing environment for at least 2 days prior to baseline testing. All tests were performed by an experimenter who was blinded to experimental conditions, including genotypes and drug treatment. For multi-day experiments using STING agonists, mice were tested in the same room at approximately the same time each day. To measure mechanical sensitivity, mice were confined to individual chambers with non-transparent borders on an elevated mesh rack, preventing mice from visualizing or interacting with one another during the testing period. […] We determined the 50% paw withdrawal threshold using the up-down method. […]

[2] = test system: rhesus macaques (Macaca mulatta); experiment: Menthol gel-induced cold allodynia, cold-water tail-withdrawal assay in non-human primates; assay type: in vivo
Experimental: Behavioral testing in non-human primates: Five adult rhesus monkeys (Mucaca mulatta, 9.3-13.8 kg) were maintained in an AAALAC-approved facility at Wake Forest University School of Medicine in accordance with Wake Forest University IACUC regulations. Animals were individually housed in temperature- and humidity-controlled species-specific rooms maintained in a 12 h light/12 h dark cycle. All animals have been previously trained in the tail-withdrawal assay. All experimental procedures were conducted in accordance with the Guide for the Care and Use of Laboratory Animals standards adopted by the NIH. Drug infusion was through a previously implanted spinal catheter. Behavioral testing was performed by an experimenter who was blinded to the drug being administered. A cold-water tail-withdrawal assay was used to evaluate nociceptive responses to 16° C. water with a cut-off of 20 sec. 0.3 mL of 2% menthol gel (Millipore Sigma) was applied to the tail for 3 minutes to induce transient and reversible cold allodynia.

Row | SMILES | tolerance on repeated administration ([1]; repeated i.t. 35 nmol, naïve mice or SNI mice) | SNI-induced astrogliosis ([1]; repeated i.t. administration, SNI) | cold allodynia at later timepoints ([1]; repeated i.t., starting at D12) | mechanical allodynia at later timepoints ([1]; repeated i.t., starting at D12) | 2% menthol gel-induced cold allodynia ([2]; i.t. catheter) | intrathecal dose producing analgesia in NHPs ([2]; vs. 35 nmol in murine models) [nmol]
1 | Cc1ccc2c(=O)c3cccc(CC(=O)O)c3oc2c1C [DMXAA, 2-(5,6-dimethyl-9-oxo-9H-xanthen-4-yl)acetic acid] | did not show signs of tolerance | attenuated SNI-induced astrogliosis | significantly reduced | significantly reduced | – | –
2 | Nc1ncnc2c1ncn2[C@@H]1O[C@@H]2COP(=O)([S-])O[C@@H]3[C@H](O)[C@@H](COP([O-])(=S)O[C@H]2[C@H]1O)O[C@H]3n1cnc2c(N)ncnc21.[Na+].[Na+] (stereo partly drawn) [ADU-S100, (2′-5′)-[P(R)]-5′-O-[(R)-hydroxymercaptophosphinyl]-P-thioadenylyl-adenosine cyclic dinucleotide] | – | – | – | – | long-lasting and dose-dependent analgesia; also recorded: attenuated 2% menthol gel-induced cold allodynia in a dose-dependent manner | 3
